Consider seven molecules from patent US10472688B2, “Compositions and methods for producing podophyllotoxin derivatives” (The Board of Trustees of the Leland Stanford Junior …, priority 2015, dated 2019).

Data set [1] deals with T1, CYP71BE54 (Sinopodophyllum hexandrum, UniProt A0A0N9HT29).
T1 sequence (A0A0N9HT29 1-507): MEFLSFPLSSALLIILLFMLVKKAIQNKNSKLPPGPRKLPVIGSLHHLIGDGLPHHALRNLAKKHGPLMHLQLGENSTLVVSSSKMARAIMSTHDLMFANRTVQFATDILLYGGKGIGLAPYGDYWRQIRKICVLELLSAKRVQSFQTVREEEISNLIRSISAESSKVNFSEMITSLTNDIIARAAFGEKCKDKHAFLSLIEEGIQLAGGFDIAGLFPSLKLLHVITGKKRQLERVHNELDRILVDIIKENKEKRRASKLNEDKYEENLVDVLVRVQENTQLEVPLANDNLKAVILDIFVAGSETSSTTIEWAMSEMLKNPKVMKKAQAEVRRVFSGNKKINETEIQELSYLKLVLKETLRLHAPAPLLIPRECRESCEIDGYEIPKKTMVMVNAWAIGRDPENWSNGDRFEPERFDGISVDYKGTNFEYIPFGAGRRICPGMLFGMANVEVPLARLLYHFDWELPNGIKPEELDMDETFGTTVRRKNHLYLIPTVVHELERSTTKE
Briefly: CYP71BE54-microsome assays. The settings on record: 4 mg/mL microsomes, 1 mM NADPH, 50 μM substrate, 30° C., 2 h. The method, then: (§1) Total reaction volumes were 50 μL.

Data set [2] addresses T2, 2-ODD (Sinopodophyllum hexandrum, UniProt A0A0N9HQ36).
T2 construct: 6xHis (C); made in house; host or cells: E. coli BL21 (DE3), pET24b
Kind of data set: 2-ODD enzyme assays. Particulars: 5 μg/mL 2-ODD, 2-oxoglutarate, FeSO4, 30 μM substrate, 30° C., 2 h. In kind it is biochemical, P. hexandrum. The method, then: The above protocol was also followed for the expression and purification of 2-ODD from BL21 (DE3) E. coli harboring pET24b:2-ODD except for the following changes: the 2 L culture at OD600=0.6 was cooled to 16° C. and induced with 100 μM IPTG. The culture was further incubated at 16° C. for 24 h and cooled in ice water before proceeding with purification.
Assays lacking enzyme or 2-oxoglutarate served as negative controls.
as §1

Data set [3] has as its target T3, CYP71CU1 (Sinopodophyllum hexandrum, UniProt A0A0N9HTU1).
T3 sequence (A0A0N9HTU1 1-493): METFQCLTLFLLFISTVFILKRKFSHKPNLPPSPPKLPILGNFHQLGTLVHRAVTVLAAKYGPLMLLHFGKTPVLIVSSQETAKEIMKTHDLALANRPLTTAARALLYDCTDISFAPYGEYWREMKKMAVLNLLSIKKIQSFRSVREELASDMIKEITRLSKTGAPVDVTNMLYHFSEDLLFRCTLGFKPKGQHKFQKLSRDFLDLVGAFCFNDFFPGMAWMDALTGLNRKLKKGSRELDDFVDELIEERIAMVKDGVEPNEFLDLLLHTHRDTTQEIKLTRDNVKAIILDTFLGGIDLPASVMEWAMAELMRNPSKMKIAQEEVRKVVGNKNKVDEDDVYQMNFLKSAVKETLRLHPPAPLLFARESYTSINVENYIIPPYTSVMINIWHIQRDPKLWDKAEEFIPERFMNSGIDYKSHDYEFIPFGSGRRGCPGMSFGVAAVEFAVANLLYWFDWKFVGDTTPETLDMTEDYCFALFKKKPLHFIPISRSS
Briefly: CYP71CU1-microsome assays. Particulars: 1 mg/mL microsomes, 1 mM NADPH, 30 or 50 μM substrate, 30° C., 2 h.
Procedure: Yeast growth, induction and microsome preparation were performed according to Pompon et al. Microsomes enriched with P450 were isolated in 50 mM Tris-Cl, pH=7.4, 20% glycerol, 1 mM EDTA, flash-frozen as pellets in liquid nitrogen and kept at −80° C. for long term storage. Total protein content was estimated by measuring UV absorbance at 280 nm on a NanoDrop 1000 spectrophotometer.
CYP71CU1-microsome assays contained 1 mg/mL of CYP71CU1-microsomes, 1 mM NADPH, 30 or 50 μM of substrate and 100 mM NaCl in sodium phosphate buffer (50 mM, pH 7.4). Assays with microsomes from WAT11 harboring an empty vector or lacking NADPH served as negative controls. […] Enzyme assays with both CYP71CU1-microsomes and OMT1 contained 1 mg/mL of CYP71CU1-microsomes, 1 mM NADPH, 10 μg/mL of purified OMT1, 1 mM SAM, 30 or 50 μM of substrate and 100 mM NaCl in sodium phosphate buffer (50 mM, pH 7.4).
All substrates [(−)-matairesinol, (−)-arctigenin, (−)-pluviatolide, (−)-5′-desmethoxy-yatein, (−)-yatein, (−)-deoxypodophyllotoxin, and (−)-podophyllotoxin] were derived from a 100% DMSO stock; final concentration of DMSO in enzyme assays was kept constant at 5%. Total reaction volumes were 50 μL. Reactions were initiated by the addition of enzyme and incubated at 30° C.
After 2 h of incubation, reactions were quenched by the addition of 1 volume of acetonitrile with 0.1% TFA and clarified by centrifugation for 10 min at 17,000 g.

Data set [4] concerns the target T4, (−)-pluviatolide O-methyltransferase (OMT3) (Sinopodophyllum hexandrum, UniProt A0A0N9HMN6).
T4 construct: 6xHis (N); made in house; host or cells: E. coli BL21 (DE3), pET28a
T4 sequence (A0A0N9HMN6 1-372): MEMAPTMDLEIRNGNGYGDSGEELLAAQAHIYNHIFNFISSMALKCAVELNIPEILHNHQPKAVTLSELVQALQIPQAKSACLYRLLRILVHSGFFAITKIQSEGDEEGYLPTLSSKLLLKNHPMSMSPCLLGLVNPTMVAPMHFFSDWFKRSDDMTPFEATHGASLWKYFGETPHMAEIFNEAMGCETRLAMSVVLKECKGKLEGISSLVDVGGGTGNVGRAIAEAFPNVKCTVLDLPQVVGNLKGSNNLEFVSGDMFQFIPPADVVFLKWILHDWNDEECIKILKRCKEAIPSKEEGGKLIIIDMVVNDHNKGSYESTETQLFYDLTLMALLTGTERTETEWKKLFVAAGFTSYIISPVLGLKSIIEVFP
Kind of data set: In vitro characterization of recombinant OMT3 (steady state kinetics, substrate specificity). Particulars: for acceptance as substrate by OMT3: (+)-pinoresinol 400 μM, (−)-matairesinol 40 μM, (−)-arctigenin 40 μM, quenched after 2 h. In kind it is biochemical, P. hexandrum.

Data set [5] deals with OMT1. Briefly: OMT1 enzyme assays. In kind it is biochemical, P. hexandrum. Particulars: 10 μg/mL OMT1, 1 mM SAM, 30 or 50 μM substrate, 30° C., 2 h. How it is done:
The above protocol was also followed for the expression and purification of OMT1 from BL21 (DE3) E. coli harboring pET24b:OMT1.
Assay lacking SAM served as negative control.
as §1

As a reminder, the kcat is the maximal rate divided by the concentration of active sites. One may read the Km as the concentration of substrate that gives half-maximal velocity.

T2 sequence (A0A0N9HQ36 whole entry): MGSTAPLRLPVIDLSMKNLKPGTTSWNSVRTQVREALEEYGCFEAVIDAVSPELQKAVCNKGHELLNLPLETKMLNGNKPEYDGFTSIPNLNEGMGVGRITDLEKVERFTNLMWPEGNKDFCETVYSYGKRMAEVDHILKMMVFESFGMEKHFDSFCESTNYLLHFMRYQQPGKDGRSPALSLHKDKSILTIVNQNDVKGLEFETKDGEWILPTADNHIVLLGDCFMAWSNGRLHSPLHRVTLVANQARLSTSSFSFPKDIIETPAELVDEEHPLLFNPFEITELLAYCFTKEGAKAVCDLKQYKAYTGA

Regarding `COc1ccc(C[C@H]2C(=O)OC[C@@H]2Cc2ccc3c(c2)OCO3)cc1OC` [(−)-5′-desmethoxy-yatein], the “activity of CYP71BE54-enriched microsomes on substrate” value in data set [1] is “No activity”. Further, the “activity of 2-ODD on substrate, compared to (−)-yatein” value in data set [2] was “some activity”.
Turning to `COc1cc(C[C@H]2C(=O)OC[C@@H]2Cc2ccc(OC)c(OC)c2)ccc1O` [(−)-arctigenin], the “activity of CYP71CU1 on substrate” value in data set [3] is “not active”. Moreover, in data set [4], the “acceptance as substrate by OMT3” value is on record as “much lower efficiency”. In addition, in data set [5], the “activity of OMT1 on substrate” value is recorded as “not active”.
`COc1cc([C@@H]2c3cc4c(cc3[C@H](O)[C@H]3COC(=O)[C@H]23)OCO4)cc(OC)c1OC` [(−)-podophyllotoxin]: the “activity of CYP71BE54-enriched microsomes on substrate” value in data set [1] was “No activity”.
For the molecule `COc1cc(C2OCC3C(c4ccc(O)c(OC)c4)OCC23)ccc1O` (single isomer, unassigned; (+)) [(+)-pinoresinol], the “acceptance as substrate by OMT3” value in data set [4] is recorded as “did not turn over”.
Regarding `COc1cc(C[C@H]2COC(=O)[C@@H]2Cc2ccc(O)c(OC)c2)ccc1O` [(−)-matairesinol], in data set [3], the “activity of CYP71CU1 on substrate” value is recorded as “not active”. Also, in data set [4], the “acceptance as substrate by OMT3” value was “much lower efficiency”. Further, the “activity of OMT1 on substrate” value in data set [5] was “not active”.
Turning to `COc1cc(C[C@H]2C(=O)OC[C@@H]2Cc2ccc3c(c2)OCO3)ccc1O` [(−)-pluviatolide], the “activity of CYP71CU1 on substrate” value in data set [3] was “not active”. The kcat in data set [4] ((−)-pluviatolide methylation by OMT3 purified from E. coli, 1 mM SAM, 22° C., pH 7.4) was found to be 0.72 s⁻¹. Besides, the Km in data set [4] ((−)-pluviatolide methylation by OMT3 purified from E. coli, 1 mM SAM, 22° C., pH 7.4, read-out: apparent Km) was 1.4 µM. The “activity of OMT1 on substrate” value in data set [5] was “not active”. Also, in data set [2], the “activity of 2-ODD on substrate, compared to (−)-yatein” value is “negligible activity”.
For `COc1cc(C[C@H]2C(=O)OC[C@@H]2Cc2ccc3c(c2)OCO3)cc(OC)c1OC` [(−)-yatein], the “activity of CYP71BE54-enriched microsomes on substrate” value in data set [1] was “No activity”.
